Experimental data as given in patent US11377442B2, “Small molecule agonists and antagonists of NR2F6 activity” (ZANDER THERAPEUTICS, INC., priority 2016, dated 2022).
Where two headings read alike, the source gives them in different places.

Legend:
Assay type in all cases: cell-based
NR2F6 = target: T1, NR2F6 (Homo sapiens, UniProt P10588); experiment: NR2F6 agonist screening, Firefly signal cmpd/DMSO; conditions: for Firefly F4, cmpd/DMSO (mean): Table 14; for Firefly, cmpd/DMSO repeat 1 / Firefly, cmpd/DMSO repeat 2: first set screening, 10 μM
T1 construct: expressed in transfected cells; also transient transfection
T1 sequence (P10588 1-404): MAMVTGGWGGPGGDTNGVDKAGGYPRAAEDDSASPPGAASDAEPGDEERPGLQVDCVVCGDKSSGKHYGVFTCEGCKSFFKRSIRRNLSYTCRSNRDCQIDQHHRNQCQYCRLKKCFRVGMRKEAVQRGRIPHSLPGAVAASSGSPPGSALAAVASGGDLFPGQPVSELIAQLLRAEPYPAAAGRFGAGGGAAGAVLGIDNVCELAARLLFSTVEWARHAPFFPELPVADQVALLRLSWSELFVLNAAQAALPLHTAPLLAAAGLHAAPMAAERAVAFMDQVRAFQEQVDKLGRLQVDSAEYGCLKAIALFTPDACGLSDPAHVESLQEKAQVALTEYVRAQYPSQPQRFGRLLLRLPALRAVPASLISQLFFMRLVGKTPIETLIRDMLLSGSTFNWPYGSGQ

ERα = target: T2, ERα (Homo sapiens, UniProt P03372); experiment: Counterscreening, Firefly signal with ERα transient transfection (Firefly_ERa); conditions: ERα transient transfection, 10 μM
T2 construct: expressed in transfected cells
T2 sequence (P03372 1-595): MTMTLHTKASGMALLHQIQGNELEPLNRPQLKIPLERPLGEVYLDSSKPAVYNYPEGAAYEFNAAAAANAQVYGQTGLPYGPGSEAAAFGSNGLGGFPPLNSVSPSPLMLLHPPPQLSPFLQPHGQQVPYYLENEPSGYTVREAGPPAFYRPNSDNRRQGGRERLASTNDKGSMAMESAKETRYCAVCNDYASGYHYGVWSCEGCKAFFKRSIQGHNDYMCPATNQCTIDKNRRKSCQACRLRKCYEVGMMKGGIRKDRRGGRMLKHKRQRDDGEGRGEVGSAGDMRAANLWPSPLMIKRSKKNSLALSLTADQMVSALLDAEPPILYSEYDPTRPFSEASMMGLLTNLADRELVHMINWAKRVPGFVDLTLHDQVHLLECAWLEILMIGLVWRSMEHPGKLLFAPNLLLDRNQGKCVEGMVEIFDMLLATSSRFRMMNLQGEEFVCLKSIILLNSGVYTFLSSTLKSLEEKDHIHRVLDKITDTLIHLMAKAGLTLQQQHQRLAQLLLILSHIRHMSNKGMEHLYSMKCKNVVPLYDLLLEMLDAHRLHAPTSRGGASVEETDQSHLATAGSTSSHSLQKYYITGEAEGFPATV
Procedure: The methodology for screening candidate compounds as NR2F6 agonists was as follows: For primary screening, hit criteria was ACT %>DMSO control+5*SD (DSO control) at 10 μM, or any compound with S/B>2. For rescreening, hit criteria was ACT %>DMSO control+3*SD (DSO control) in each replicate at 10 μM. For counterscreening, hit criteria was mean ACT<DMSO control+3*SD (DMSO control) with ERα transient transfection in duplicate at 10 μM.

Renilla_ERa = experiment: Renilla signal in ERα counterscreen (Renilla_ERa); conditions: ERα transient transfection, 10 μM
HEK293 pGL4 = experiment: Firefly_pGL signal, cmpd/DMSO (pGL4 control cells); conditions: Homo sapiens, HEK293, Table 14, read-out: Firefly pGL4, cmpd/DMSO (mean)
Renilla = Renilla signal in NR2F6 agonist screening, cmpd/DMSO; conditions: for fold induction at 2 µM / fold induction at 10 µM / fold induction at 40 µM: Renilla
[1] = repeat 1, read-out: Renilla_ERa, cmpd/DMSO repeat 1
[2] = repeat 2, read-out: Renilla_ERa, cmpd/DMSO repeat 2
[3] = Table 14, read-out: Renilla F4, cmpd/DMSO (mean)
[4] = Table 14, 10 uM, read-out: Renilla F4, cmpd/DMSO (mean)
[5] = first set screening, 10 μM, repeat 1, read-out: Renilla, cmpd/DMSO repeat 1
[6] = first set screening, 10 μM, repeat 2, read-out: Renilla, cmpd/DMSO repeat 2
[7] = first set screening, 10 μM, repeat 1
[8] = first set screening, 10 μM, repeat 2

Structure (SMILES) | Firefly F4, cmpd/DMSO (mean) (NR2F6; 2 uM) | Firefly F4, cmpd/DMSO (mean) (NR2F6; 10 uM) | Firefly F4, cmpd/DMSO (mean) (NR2F6; 40 uM) | Firefly, cmpd/DMSO repeat 1 (NR2F6) | Firefly, cmpd/DMSO repeat 2 (NR2F6) | Firefly_ERa, cmpd/DMSO repeat 1 (ERα) | Firefly_ERa, cmpd/DMSO repeat 2 (ERα) | fold induction at 10 µM (Renilla_ERa; [1]) | fold induction at 10 µM (Renilla_ERa; [2]) | fold induction at 2 µM (HEK293 pGL4) | fold induction at 10 µM (HEK293 pGL4) | fold induction at 40 µM (HEK293 pGL4) | fold induction at 2 µM (Renilla; [3]) | fold induction at 10 µM (Renilla; [4]) | fold induction at 40 µM (Renilla; [3]) | fold induction at 10 µM (Renilla; [5]) | fold induction at 10 µM (Renilla; [6]) | Renilla_ERa, cmpd/DMSO repeat 1 (Renilla_ERa; repeat 1) | Renilla_ERa, cmpd/DMSO repeat 2 (Renilla_ERa; repeat 2) | Renilla, cmpd/DMSO repeat 1 (Renilla; [7]) | other results
Cc1ccn2cc(-c3ccc(F)cc3)cc2c1 [Compound 17] | 1.9 | 1.2 | 1.3 | 2.2 | 2.4 | 2.5 | 2.2 | 1.3 | 1 | 1.7 | 1.6 | 1.3 | 0.8 | 1 | 1 | 1.3 | 1.4 | – | – | – | –
COc1ccc(-c2cn3cccc(C)c3n2)cc1 [Compound 19] | 1.7 | 1.0 | 0.5 | 2.2 | 1.7 | 2.3 | 2.4 | 1.2 | 1 | 1.9 | 1.3 | 0.9 | 1.1 | 1 | 0.6 | 1.6 | 1.7 | – | – | – | –
O=C(COc1ccccc1C(=O)N1CCOCC1)NCCc1ccccc1 [Compound 22] | 1.3 | 1.4 | 0.6 | 2.1 | 2.9 | 1.5 | 2.2 | 0.8 | 1.1 | 1.6 | 1 | 1.5 | 0.8 | 1.1 | 1 | 1.1 | 1.3 | – | – | – | –
CCc1ccc(OCC(=O)Nc2cc(-c3nc4cc(C)ccc4o3)ccc2C)cc1 [Compound 24] | – | – | – | 2.0 | 2.3 | 1.3 | 1.6 | – | – | – | – | – | – | – | – | – | – | 0.9 | 1.0 | 2.4 | Renilla, cmpd/DMSO repeat 2 (Renilla; [8]): 2.2
O=c1[nH]c(CS(=O)(=O)c2ccccc2)nc2sc3c(c12)CCCC3 [Compound 25] | – | – | – | 2.4 | 1.9 | 1.3 | 0.7 | – | – | – | – | – | – | – | – | – | – | 0.9 | 1.0 | 3.1 | Renilla, cmpd/DMSO repeat 2 (Renilla; [8]): 2.1
Cc1cc(NC(=O)CCS(=O)(=O)c2nc(-c3ccc4c(c3)OCO4)cc(C(F)(F)F)n2)no1 [Compound C1] | 0.5 | 0.5 | 0.4 | 3.4 | 4.1 | 1.0 | 1.0 | 1.3 | 1.2 | 0.7 | 0.7 | 0.6 | 2.1 | 0.2 | 0.2 | 4.1 | 1.5 | – | – | – | activity (in words) (NR2F6; screening result): particularly good activity
